In US20250099622A1, “COMPOSITIONS AND METHODS FOR EXPRESSING THERAPEUTICS” (priority 2022, published 2025):

Test system: HEK293 cells
Assay: CNP-Fc ELISA of supernatant of AAV-transduced HEK293 cells
Format: cell-based, Human
Method: C-type natriuretic peptide (CNP) has two isoforms, CNP-22 and CNP-53. Example 2 illustrates that CNP-36 fused with Fe increased the half-life of the CNP and also facilitated in purification and ELISA detection when compared to native (unfused) CNP. Transduction and CNP-Fc expression experiments were performed with three AAV vectors (AMI061, AMI087 and AMI0488). FIG. 1A is the pictorial depiction of the three vectors. FIGS. 1B-F illustrate additional vectors that can encode the CNP or the CNP fusion protein. Enzyme-linked immunoassay (ELISA) was developed for quantifying CNP-Fc fusion proteins in cell culture supernatants. The ELISA assay was used to quantify CNP-Fc expressed in HEK293 cells, human chondrocytes (HCH) cells, and human skeletal muscle cells (hSkMC) upon transduction with one of the three AAV constructs described herein.
Buffer and substrate. Coating buffer: 3.7 g sodium bicarbonate, 0.64 g sodium carbonate in 1 L of Milli Q water, pH 9.6. Stored at RT; Blocking buffer: Commercial Casein blocking buffer in PBS+ added 0.1% Tween20. Stored at 4° C.; Standard diluent: same as blocking buffer; Wash buffer: 1×PBS with 0.1% tween 20 (30 days expiry from date of manufacture); Coating Antibody (Ab): Human CNP Antibody (monoclonal), coating concentration was 2 μg/mL; Detection Ab: Goat pAb anti-human Fc. Diluted up to 1:20,000 final dilution in well. Stored at 4° C.; HRP: Streptavidin-HRP stock of 1 mg/mL, diluted up to 1:10,000. Stored at 4° C.; Substrate: TMB. Stored at 4° C.; and Stop solution: 2 N HCl. Stored at ambient temperature.
• 1. Coat 96-well plate with 2 μg/mL anti-CNP antibody final concentration per well in the coating buffer with a 50 μL volume and cover the plate with sealing cover. Put the plate at 4° C. overnight. • 2. Next day, remove the plate, wash thrice with wash buffer and tap the plate on the paper towel to remove excess solution. • 3. Add 300 μL of blocking buffer to each well using multichannel pipette. […] Add 50 μL stop solution and read plate at 450 nm with 600 as reference within 15 min. […]

AMI088: purified fusion protein Fc1-(G4S)4-CNP36 (IgG1 Fc), SEQ ID NO: 133
Concentration (CNP-Fc in HEK293 supernatant 5 days after transduction with 100,000 MOI of AAV2 N54 vector): 75 µg/mL
CNP-Fc expression compared to other CNP constructs (HEK293 supernatant, 100,000 MOI, 5 days): highest expression
